Source: ChEMBL document CHEMBL1152033, “Spiro-piperidine non-peptide neurokinin-1 receptor antagonists” (Bioorg Med Chem Lett, 1995)

Target: Substance-P receptor (Homo sapiens, UniProt P25103)
Test: Binding affinity measured by displacement of tritiated radiolabeled substance P from cloned human NK1 receptor expressed in CHO cell membranes

Sequence of Substance-P receptor (P25103 whole entry): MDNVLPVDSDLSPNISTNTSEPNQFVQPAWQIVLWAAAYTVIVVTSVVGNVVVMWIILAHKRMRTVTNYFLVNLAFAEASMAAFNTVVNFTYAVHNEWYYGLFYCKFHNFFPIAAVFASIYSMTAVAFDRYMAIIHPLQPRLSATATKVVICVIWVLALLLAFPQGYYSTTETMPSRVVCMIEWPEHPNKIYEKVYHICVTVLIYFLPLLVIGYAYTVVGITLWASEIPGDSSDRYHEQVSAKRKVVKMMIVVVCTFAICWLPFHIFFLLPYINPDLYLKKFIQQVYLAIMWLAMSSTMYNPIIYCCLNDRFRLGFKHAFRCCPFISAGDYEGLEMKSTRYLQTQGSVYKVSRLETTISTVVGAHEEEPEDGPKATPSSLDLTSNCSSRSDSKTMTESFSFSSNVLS

| SMILES | Ki [nM] |
| --- | --- |
| COc1ccccc1CN[C@H]1CCCN[C@]12CCc1ccccc12 | 39.8 |
| COc1ccccc1CN[C@H]1CCCN[C@@]12CCc1ccccc12 | > 1000 |
